Data on 15 compounds can be found in patent US10259810B2, “N-sulfonylated pyrazolo[3,4-b]pyridin-6-carboxamides and method of use” (AbbVie S.à.r.l., priority 2015, dated 2019).

Assay [1] concerns the target T1, ΔF508-CFTR (Homo sapiens, UniProt P13569, DEL508-508).
T1 construct: host or cells: CFBE41o-, doxycycline-inducible
In words: CFTR cell surface levels using HRP-tagged ΔF508-CFTR expressing CFBE cells, intrinsic corrector capacity. More on the design: % Activation: concentration or dose not given beside the values. It is filed as cell-based. As to conditions: HRP-tagged ΔF508-CFTR expressing CFBE41o- cells, compound alone (intrinsic corrector capacity), 20 hours at 33° C.; for EC50: read-out: EC50. The method, boiled down:
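Read-out: chemiluminescent HRP activity of ECL4-HRP-tagged ΔF508-CFTR at the cell surface, 15 min substrate in dark. Normalized as 100×(sample−DMSO)/(positive control−DMSO).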

Assay [2] addresses T1, ΔF508-CFTR. In words: CFTR cell surface levels using HRP-tagged ΔF508-CFTR expressing CFBE cells, in the presence of a co-corrector. Format: cell-based. As to conditions: HRP-tagged ΔF508-CFTR CFBE cells, in the presence of 3 μM co-corrector; for EC50: read-out: EC50. A digest of the protocol: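 Chemiluminescent read-out of surface HRP (15 min, dark) after PBS washes. Activity is normalized as 100×(sample−DMSO)/(3 μM co-corrector alone−DMSO).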

T1 sequence (P13569 with tags, fused parts or gaps DEL508-508): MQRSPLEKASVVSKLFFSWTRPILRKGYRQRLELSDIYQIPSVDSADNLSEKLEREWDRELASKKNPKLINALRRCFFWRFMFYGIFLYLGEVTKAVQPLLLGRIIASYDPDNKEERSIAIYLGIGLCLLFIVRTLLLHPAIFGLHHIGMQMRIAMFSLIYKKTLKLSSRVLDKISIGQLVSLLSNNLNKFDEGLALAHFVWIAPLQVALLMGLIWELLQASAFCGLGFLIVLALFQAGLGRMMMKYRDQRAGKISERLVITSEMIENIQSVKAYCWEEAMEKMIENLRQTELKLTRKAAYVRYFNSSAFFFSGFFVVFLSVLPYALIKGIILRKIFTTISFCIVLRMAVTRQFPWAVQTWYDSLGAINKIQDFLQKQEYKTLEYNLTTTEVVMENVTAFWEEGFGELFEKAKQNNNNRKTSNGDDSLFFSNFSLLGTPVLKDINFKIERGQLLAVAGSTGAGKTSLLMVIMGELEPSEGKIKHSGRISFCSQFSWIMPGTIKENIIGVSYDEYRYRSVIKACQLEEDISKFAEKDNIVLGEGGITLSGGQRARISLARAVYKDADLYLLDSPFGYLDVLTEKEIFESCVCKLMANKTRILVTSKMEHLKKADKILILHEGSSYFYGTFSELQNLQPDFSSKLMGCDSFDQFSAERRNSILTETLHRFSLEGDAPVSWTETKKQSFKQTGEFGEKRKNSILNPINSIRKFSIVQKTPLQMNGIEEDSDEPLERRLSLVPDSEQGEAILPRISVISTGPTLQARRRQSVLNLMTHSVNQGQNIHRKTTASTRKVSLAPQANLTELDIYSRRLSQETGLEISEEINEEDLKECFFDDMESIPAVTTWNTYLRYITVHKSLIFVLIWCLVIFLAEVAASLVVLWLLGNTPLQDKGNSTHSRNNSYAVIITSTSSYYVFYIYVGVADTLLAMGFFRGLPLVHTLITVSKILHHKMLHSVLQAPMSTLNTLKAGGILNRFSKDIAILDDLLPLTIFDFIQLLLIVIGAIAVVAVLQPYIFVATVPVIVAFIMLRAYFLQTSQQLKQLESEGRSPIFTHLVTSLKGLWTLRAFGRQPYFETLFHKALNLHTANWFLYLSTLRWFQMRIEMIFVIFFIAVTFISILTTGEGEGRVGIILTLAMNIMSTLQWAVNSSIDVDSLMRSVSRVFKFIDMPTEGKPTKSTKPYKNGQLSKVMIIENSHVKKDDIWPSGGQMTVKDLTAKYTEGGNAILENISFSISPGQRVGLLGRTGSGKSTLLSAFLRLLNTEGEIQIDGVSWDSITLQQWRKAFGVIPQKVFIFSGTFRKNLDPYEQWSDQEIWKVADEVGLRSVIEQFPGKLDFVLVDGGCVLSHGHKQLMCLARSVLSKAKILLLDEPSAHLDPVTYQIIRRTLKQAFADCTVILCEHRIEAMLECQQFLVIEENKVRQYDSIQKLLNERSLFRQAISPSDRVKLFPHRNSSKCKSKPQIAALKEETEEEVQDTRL

The EC50 is the concentration at which the effect is half-maximal. As for `CC(C)c1nn(C2CCCOC2)c2nc(C(=O)NS(C)(=O)=O)cc(-c3ccc(N4CCC(C#N)CC4)nc3)c12` (stereo not drawn) [Compound 145, 4-[6-(4-cyanopiperidin-1-yl)pyridin-3-yl]-N-(methanesulfonyl)-1-(oxan-3-yl)-3-(propan-2-yl)-1H-pyrazolo[3,4-b]pyridine-6-carboxamide], on ΔF508-CFTR [1], the “% Activation” value was 112.03% and the EC50 turned out to be 1040 nM. Moreover, on ΔF508-CFTR [2], the “% Activation” value is given as 271.43% and the concentration for a half-maximal effect (EC50) was 636 nM.
Taken in the same sequence, the figures for `COC1CCN(c2cc(C(=O)NS(=O)(=O)CCC(F)(F)F)nc3c2c(C2CCC2)nn3-c2ccccc2)CC1` [Compound 147, 3-cyclobutyl-4-(4-methoxypiperidin-1-yl)-1-phenyl-N-(3,3,3-trifluoropropane-1-sulfonyl)-1H-pyrazolo[3,4-b]pyridine-6-carboxamide] were 176.47%, 359 nM, 363.93% and 99.9 nM.
On to `Cc1cccc(-n2nc(C(C)C)c3c(N4CCC5(C4)CC5(F)F)cc(C(=O)NS(C)(=O)=O)nc32)c1` (stereo not drawn) [Compound 149, 4-(1,1-difluoro-5-azaspiro[2.4]heptan-5-yl)-N-(methanesulfonyl)-1-(3-methylphenyl)-3-(propan-2-yl)-1H-pyrazolo[3,4-b]pyridine-6-carboxamide], for which, on ΔF508-CFTR [1], the “% Activation” value was 122.3% and the concentration for a half-maximal effect (EC50) amounted to 386 nM. Besides, on ΔF508-CFTR [2], the “% Activation” value is 299.95% and the EC50 amounted to 259 nM.
In the case of `CC(C)OC1CCN(c2cc(C(=O)NS(C)(=O)=O)nc3c2c(C2CCC2)nn3-c2ccccc2)CC1` [Compound 151, 3-cyclobutyl-N-(methanesulfonyl)-1-phenyl-4-{4-[(propan-2-yl)oxy]piperidin-1-yl}-1H-pyrazolo[3,4-b]pyridine-6-carboxamide], on ΔF508-CFTR [1], the “% Activation” value turned out to be 228.95% and the EC50 is 347 nM. Besides, on ΔF508-CFTR [2], the “% Activation” value is 387.15% and the EC50 was determined as 109 nM.
For `COCC1CCCN(c2cc(C(=O)NS(C)(=O)=O)nc3c2c(C2CCC2)nn3-c2ccccc2)C1` (stereo not drawn) [Compound 153, 3-cyclobutyl-N-(methanesulfonyl)-4-[3-(methoxymethyl)piperidin-1-yl]-1-phenyl-1H-pyrazolo[3,4-b]pyridine-6-carboxamide], at ΔF508-CFTR [1], the “% Activation” value is 146.7% and the EC50 was 355 nM. For the same compound, at ΔF508-CFTR [2], the “% Activation” value was found to be 290.05% and the EC50 came to 130 nM.
As to `CS(=O)(=O)NC(=O)c1cc(N2CCC(OCC(=O)N3CCCC3)CC2)c2c(C3CCC3)nn(-c3ccccc3)c2n1` [Compound 154, 3-cyclobutyl-N-(methanesulfonyl)-4-{4-[2-oxo-2-(pyrrolidin-1-yl)ethoxy]piperidin-1-yl}-1-phenyl-1H-pyrazolo[3,4-b]pyridine-6-carboxamide], the results for the “% Activation” value on ΔF508-CFTR [1] and on ΔF508-CFTR [2] were 275.65% and 447.85%, respectively. The EC50 on ΔF508-CFTR [1] was 533 nM; at ΔF508-CFTR [2], 203 nM.
For the compound `COCC1CCN(c2cc(C(=O)NS(C)(=O)=O)nc3c2c(C(C)C)nn3-c2cccc(C)c2)CC1` [Compound 156, N-(methanesulfonyl)-4-[4-(methoxymethyl)piperidin-1-yl]-1-(3-methylphenyl)-3-(propan-2-yl)-1H-pyrazolo[3,4-b]pyridine-6-carboxamide], on ΔF508-CFTR [1], the “% Activation” value is given as 411% and the EC50 turned out to be 439 nM. In addition, at ΔF508-CFTR [2], the “% Activation” value stood at 636.47% and the 50% effective concentration (EC50) was 360 nM.
As for `CC(C)c1nn(-c2cccc(N(C)C)c2)c2nc(C(=O)NS(C)(=O)=O)cc(N3CCCCC3)c12` [Compound 157, 1-[3-(dimethylamino)phenyl]-N-(methanesulfonyl)-4-(piperidin-1-yl)-3-(propan-2-yl)-1H-pyrazolo[3,4-b]pyridine-6-carboxamide], at ΔF508-CFTR [1], the “% Activation” value worked out at 327.8% and the concentration giving a half-maximal response (EC50) came out at 460 nM. At ΔF508-CFTR [2], the “% Activation” value is recorded as 542.17% and the EC50 turned out to be 359 nM.
For `CS(=O)(=O)NC(=O)c1cc(N2CCC3(CCO3)CC2)c2c(C3CCC3)nn(-c3ccccc3)c2n1` [Compound 159, 3-cyclobutyl-N-(methanesulfonyl)-4-(1-oxa-7-azaspiro[3.5]nonan-7-yl)-1-phenyl-1H-pyrazolo[3,4-b]pyridine-6-carboxamide], in that order: 103.02%, 661 nM, 270.3% and 483 nM.
For `COCCC1CCN(c2cc(C(=O)NS(C)(=O)=O)nc3c2c(C(C)C)nn3-c2cccc(C)c2)CC1` [Compound 161, N-(methanesulfonyl)-4-[4-(2-methoxyethyl)piperidin-1-yl]-1-(3-methylphenyl)-3-(propan-2-yl)-1H-pyrazolo[3,4-b]pyridine-6-carboxamide], in that order: 406.4%, 730 nM, 574.1% and 355 nM.
Turning to `COC1CCCN(c2cc(C(=O)NS(C)(=O)=O)nc3c2c(C(C)C)nn3-c2cccc(C)c2)C1` (stereo not drawn) [Compound 162, N-(methanesulfonyl)-4-(3-methoxypiperidin-1-yl)-1-(3-methylphenyl)-3-(propan-2-yl)-1H-pyrazolo[3,4-b]pyridine-6-carboxamide], at ΔF508-CFTR [1], the “% Activation” value turned out to be 169% and the EC50 stood at 445 nM. For the same compound, on ΔF508-CFTR [2], the “% Activation” value is 331.53% and the EC50 came to 304 nM.
On to `CCS(=O)(=O)NC(=O)c1cc(N2CCCC(OC)C2)c2c(C(C)C)nn(-c3cccc(C)c3)c2n1` (stereo not drawn) [Compound 163, N-(ethanesulfonyl)-4-(3-methoxypiperidin-1-yl)-1-(3-methylphenyl)-3-(propan-2-yl)-1H-pyrazolo[3,4-b]pyridine-6-carboxamide], for which, on ΔF508-CFTR [1], the “% Activation” value is recorded as 175.4% and the EC50 worked out at 442 nM. On ΔF508-CFTR [2], the “% Activation” value is 342.3% and the EC50 is 112 nM.
For the compound `Cc1cccc(-n2nc(C(C)C)c3c(N4CCC(CF)CC4)cc(C(=O)NS(C)(=O)=O)nc32)c1` [Compound 164, 4-[4-(fluoromethyl)piperidin-1-yl]-N-(methanesulfonyl)-1-(3-methylphenyl)-3-(propan-2-yl)-1H-pyrazolo[3,4-b]pyridine-6-carboxamide], on ΔF508-CFTR [1], the “% Activation” value is reported as 295.25% and the EC50 is 594 nM. On ΔF508-CFTR [2], the “% Activation” value was 492.45% and the concentration giving a half-maximal response (EC50) was 388 nM.
For `Cc1cccc(-n2nc(C(C)C)c3c(N4CCC(S(C)(=O)=O)CC4)cc(C(=O)NS(C)(=O)=O)nc32)c1` [Compound 165, N-(methanesulfonyl)-4-[4-(methanesulfonyl)piperidin-1-yl]-1-(3-methylphenyl)-3-(propan-2-yl)-1H-pyrazolo[3,4-b]pyridine-6-carboxamide], in that order: 373.95%, 1780 nM, 534.2% and 885 nM.
Consider `CC(C)Oc1nn(-c2ccccc2)c2nc(C(=O)NS(C)(=O)=O)cc(-c3ccc(N4CCOCC4)cc3)c12` [Compound 166, N-(methanesulfonyl)-4-[4-(morpholin-4-yl)phenyl]-1-phenyl-3-[(propan-2-yl)oxy]-1H-pyrazolo[3,4-b]pyridine-6-carboxamide], for which, at ΔF508-CFTR [1], the “% Activation” value is reported as 235.2% and the EC50 stood at 439 nM. On ΔF508-CFTR [2], the “% Activation” value amounted to 408.53% and the EC50 turned out to be 310 nM.
